Experimental findings from patent US20240300917A1, “MICROBIOCIDAL QUINOLINE/QUINOXALINE ISOQUINOLINE DERIVATIVES” (SYNGENTA CROP PROTECTION AG, priority 2021, published 2024) are described below.

For the molecule `C[C@@H]1N=C(c2cnc3c(F)cccc3c2)c2cccc(Cl)c2[C@@H]1C` (racemic) [E.15, rac-(3S,4S)-5-chloro-1-(8-fluoro-3-quinolyl)-3,4-dimethyl-3,4-dihydroisoquinoline], the melting point fell in the range of 100 to 102 °C.
The figure for `Cc1ccc2c(c1C#N)[C@H](C)[C@H](C)N=C2c1cnc2c(F)cccc2c1` (racemic) is 164 to 166 °C; for `Cc1ccc2c(c1Cl)[C@H](C)[C@H](C)N=C2c1cnc2c(F)cccc2c1` (racemic) [E.14, rac-(3S,4S)-5-chloro-1-(8-fluoro-3-quinolyl)-3,4,6-trimethyl-3,4-dihydroisoquinoline] it is 84 to 86 °C; for `C[C@@H]1N=C(c2cnc3c(F)cccc3c2)c2cccc(Cl)c2[C@H]1C` (racemic) [E.13, rac-(3S,4R)-5-chloro-1-(8-fluoro-3-quinolyl)-3,4-dimethyl-3,4-dihydroisoquinoline] it is 112 to 114 °C.
The figure for `Cc1ccc2c(c1C#N)[C@H](C)[C@H](C)N=C2c1cnc2c(F)c(F)ccc2c1` (racemic) [E.06, rac-(3S,4S)-1-(7,8-difluoro-3-quinolyl)-3,4,6-trimethyl-3,4-dihydroisoquinoline-5-carbonitrile] is 140 to 142 °C; for `C[C@@H]1N=C(c2cnc3c(F)cccc3c2)c2cccc(Br)c2[C@H]1C` (racemic) [E.12, rac-(3S,4R)-5-bromo-1-(8-fluoro-3-quinolyl)-3,4-dimethyl-3,4-dihydroisoquinoline] it is 132 to 134 °C; for `Cc1ccc2c(c1Cl)[C@@H](C)[C@H](C)N=C2c1cnc2c(F)cccc2c1` (racemic) [E.09, rac-(3S,4R)-5-chloro-1-(8-fluoro-3-quinolyl)-3,4,6-trimethyl-3,4-dihydroisoquinoline] it is 82 to 84 °C.
